Here are results for two molecules from PMC4901392 (Cell host & microbe, 2016).

What is called Km is the concentration of substrate that gives half-maximal velocity. By stoichiometry N is commonly meant the number of molecules, sites or subunits per partner or assembly.

The subject of experiment [1] is ZigA. The settings on record: read-out: apparent Km; Zn-bound ZigA (2 µM), 2 mM MgCl2, 150 mM NaCl, 20 mM Tris-HCl pH 8.0.
Experiment [2] addresses ZigA (Zur-induced GTPase A) (A. baumannii). Description: SEC. In general terms: Size exclusion chromatography separates by hydrodynamic size, large species first.

`Nc1nc2c(ncn2[C@@H]2O[C@H](COP(=O)(O)OP(=O)(O)OP(=O)(O)O)[C@@H](O)[C@H]2O)c(=O)[nH]1` [GTP]: the Km in experiment [1] came out at 150 µM.
In turn, ZigA (Zur-induced GTPase A) (enzyme) showed a stoichiometry N in experiment [2] of 2.
